For 14 compounds, MIC results are on record in ChEMBL document CHEMBL1649187, “New plasmid-mediated quinolone resistance gene, qnrC, found in a clinical isolate of Proteus mirabilis” (2009).

Type in all cases: functional
The test system of experiment [1] is Proteus mirabilis. The experiment in a line: Antimicrobial activity against Proteus mirabilis 06-489 isolated from infected human urinary tract by CLSI agar dilution method. A general note: In agar dilution, organisms are placed on agar that contains the substance at set levels.
Experiment [2] relates to Escherichia coli. The experiment in a line: Antimicrobial activity against Escherichia coli J53 transconjugated with Proteus mirabilis pHS10 carrying qnrC gene by CLSI agar dilution method.
For experiment [3], the system named is Escherichia coli. The experiment in a line: Antimicrobial activity against Escherichia coli J53 by CLSI agar dilution method.
Experiment [4] relates to Proteus mirabilis. In words: Antimicrobial activity against Proteus mirabilis 06-489 isolated from infected human urinary tract by Etest. To be noted: 06-489, Urine.
The test system of experiment [5] is Escherichia coli. The experiment in a line: Antimicrobial activity against Escherichia coli J53 transconjugated with Proteus mirabilis pHS10 carrying qnrC gene by Etest.
The subject of experiment [6] is Escherichia coli. The experiment in a line: Antimicrobial activity against Escherichia coli J53 by Etest.
The subject of experiment [7] is Escherichia coli. The experiment in a line: Antimicrobial activity against Escherichia coli TOP10 harboring pHS12 carrying qnrC gene by CLSI agar dilution method.
The test system of experiment [8] is Escherichia coli. In words: Antimicrobial activity against Escherichia coli TOP10 harboring pHS12 carrying ATG to ACG substituted qnrC gene by CLSI agar dilution method.
Experiment [9] concerns Escherichia coli. In words: Antimicrobial activity against Escherichia coli TOP10 harboring pHS12 carrying TTG to ATG substituted qnrC gene by CLSI agar dilution method.
The subject of experiment [10] is Escherichia coli. In words: Antimicrobial activity against Escherichia coli TOP10 harboring pHS12 carrying TTG to TTA substituted qnrC gene by CLSI agar dilution method.
For experiment [11], the system named is Escherichia coli. In words: Antimicrobial activity against Escherichia coli TOP10 harboring pHS12 carrying ATT to ATG substituted qnrC gene by CLSI agar dilution method.
Experiment [12] relates to Escherichia coli. The experiment in a line: Antimicrobial activity against Escherichia coli TOP10 harboring pHS12 carrying ATT to TTA substituted qnrC gene by CLSI agar dilution method.
The subject of experiment [13] is Escherichia coli. The experiment in a line: Antimicrobial activity against Escherichia coli ATCC 25922 by CLSI agar dilution method.
Experiment [14] relates to Escherichia coli. In words: Antimicrobial activity against Escherichia coli TOP10 harboring pHS12 carrying TTG to TCG substituted qnrC gene by CLSI agar dilution method.

Values after ≈ are worked out from the molar mass of the structure shown.

Regarding GENTAMICIN, the results for the minimal inhibitory concentration (MIC) in experiment [1] (Urine), in experiment [2] and in experiment [3] were 16 µg/mL, 4 µg/mL and 0.125 µg/mL, respectively.
On to `CN(C)[C@@H]1C(O)=C(C(N)=O)C(=O)[C@@]2(O)C(O)=C3C(=O)c4c(O)cccc4[C@@](C)(O)[C@H]3C[C@@H]12` [TETRACYCLINE], for which the minimal inhibitory concentration (MIC) (usually the lowest concentration found to suppress growth) in [1] (06-489, Urine) is 128 µg/mL (≈ 288 µM); in experiment [2], 128 µg/mL (≈ 288 µM); in [3] it was 1 µg/mL (≈ 2.25 µM).
With `NCC[C@H](O)C(=O)N[C@@H]1C[C@H](N)[C@@H](O[C@H]2O[C@H](CN)[C@@H](O)[C@H](O)[C@H]2O)[C@H](O)[C@H]1O[C@H]1O[C@H](CO)[C@@H](O)[C@H](N)[C@H]1O` [AMIKACIN], the minimal inhibitory concentration (MIC) was found to be 8 µg/mL (≈ 13.7 µM) in experiment [1] (06-489, Urine); 0.5 µg/mL (≈ 0.854 µM) in experiment [2]; 0.25 µg/mL (≈ 0.427 µM) in experiment [3].
The matching figures for `CO/N=C(\C(=O)N[C@@H]1C(=O)N2C(C(=O)O)=C(COC(C)=O)CS[C@H]12)c1csc(N)n1` [CEFOTAXIME]: at most 0.06 µg/mL, at most 0.06 µg/mL and at most 0.06 µg/mL.
For the compound `COc1cc(Cc2cnc(N)nc2N)cc(OC)c1OC` [TRIMETHOPRIM], the MIC was over 128 µg/mL in experiment [1] (06-489, Urine); over 128 µg/mL in experiment [2]; 0.25 µg/mL (≈ 0.861 µM) in [3].
As for `CC1(C)S[C@@H]2[C@H](NC(=O)[C@H](N)c3ccccc3)C(=O)N2[C@H]1C(=O)O` [AMPICILLIN], the MIC in experiment [1] (06-489, Urine) is 64 µg/mL (≈ 183 µM); in experiment [2], 128 µg/mL (≈ 366 µM); in experiment [3] it was 4 µg/mL (≈ 11.4 µM).
Taken in the same sequence, the figures for `Cc1cc(NS(=O)(=O)c2ccc(N)cc2)no1` [SULFAMETHOXAZOLE] were over 1020 µg/mL, over 1020 µg/mL and 16 µg/mL (≈ 63.2 µM).
Taken in the same sequence, the figures for `CO/N=C(\C(=O)N[C@@H]1C(=O)N2C(C(=O)O)=C(COC(N)=O)CS[C@H]12)c1ccco1` [CEFUROXIME] were 4 µg/mL (≈ 9.43 µM), 8 µg/mL (≈ 18.9 µM) and 8 µg/mL (≈ 18.9 µM).
Consider `C[C@H]1COc2c(N3CCN(C)CC3)c(F)cc3c(=O)c(C(=O)O)cn1c23.C[C@H]1COc2c(N3CCN(C)CC3)c(F)cc3c(=O)c(C(=O)O)cn1c23.O` [LEVOFLOXACIN], for which the minimum inhibitory concentration (MIC) in [4] is 0.5 µg/mL; in experiment [5], 0.25 µg/mL; in [6] it was 0.023 µg/mL; in experiment [7], 0.19 µg/mL; in experiment [8], 0.19 µg/mL; in experiment [9], 0.19 µg/mL. Further, the MIC in experiment [10] was 0.006 µg/mL; in experiment [11], 0.125 µg/mL; in [12], 0.125 µg/mL; in [13], 0.006 µg/mL.
`CO[C@@]1(NC(=O)Cc2cccs2)C(=O)N2C(C(=O)O)=C(COC(N)=O)CS[C@@H]21` [CEFOXITIN]: the MIC worked out at 2 µg/mL (≈ 4.68 µM) in experiment [1] (06-489, Urine); 4 µg/mL (≈ 9.36 µM) in experiment [2]; 4 µg/mL (≈ 9.36 µM) in experiment [3].
For `CCn1cc(C(=O)O)c(=O)c2ccc(C)nc21` [NALIDIXIC ACID], the minimum inhibitory concentration (MIC) is 16 µg/mL (≈ 68.9 µM) in experiment [4]; 16 µg/mL (≈ 68.9 µM) in experiment [5]; 4 µg/mL (≈ 17.2 µM) in experiment [6]; 4 µg/mL (≈ 17.2 µM) in experiment [7]; 4 µg/mL (≈ 17.2 µM) in experiment [8]; 4 µg/mL (≈ 17.2 µM) in experiment [9]. Further, the minimal inhibitory concentration (MIC) in [14] is 1.5 µg/mL (≈ 6.46 µM); in experiment [10] it was 1 µg/mL (≈ 4.31 µM); in experiment [11], 4 µg/mL (≈ 17.2 µM); in [12], 3 µg/mL (≈ 12.9 µM); in [13], 1 µg/mL (≈ 4.31 µM).
Regarding `O=C(N[C@H](CO)[C@H](O)c1ccc([N+](=O)[O-])cc1)C(Cl)Cl` [CHLORAMPHENICOL], the MIC in experiment [1] (06-489, Urine) amounted to 16 µg/mL (≈ 49.5 µM); in [2] it was 64 µg/mL (≈ 198 µM); in experiment [3] it was 8 µg/mL (≈ 24.8 µM).
In the case of `O=C(O)c1cn(C2CC2)c2cc(N3CCNCC3)c(F)cc2c1=O` [CIPROFLOXACIN], 0.25 µg/mL (≈ 0.754 µM) was the least that counted as inhibitory in experiment [4] (MIC).
With `CC(C)(O/N=C(\C(=O)N[C@@H]1C(=O)N2C(C(=O)[O-])=C(C[n+]3ccccc3)CS[C@H]12)c1csc(N)n1)C(=O)O` [CEFTAZIDIME], the MIC in [1] (06-489, Urine) is at most 0.06 µg/mL; in experiment [2], 0.06 µg/mL (≈ 0.11 µM); in experiment [3], at most 0.06 µg/mL.
